Among the data in ChEMBL document CHEMBL3880391, “Tetrahydroquinoline derivatives as glycine antagonists” (2002) are ED50 and Activity values, retold here.

For one data set, the system named is Mus musculus. Kind of data set: Analgesic activity in mouse assessed as inhibition of formalin-induced pain by measuring time spent licking injected paw for first 5 minutes (early phase) and from 20 to 60 mins (late phase) administered orally 1 hr before formalin injection by formalin test. In kind it is functional.
Conditions: not given
As for `O=C([O-])C1CC(C2=CCN(c3ccccc3)C2=O)c2ccc(Cl)cc2N1.[Na+]` (single isomer, unassigned; (-)), the ED50 worked out at 0.03 mg/kg.

As to `O=C([O-])C1CC(C2=CCN(c3ccccc3)C2=O)c2ccc(Cl)cc2N1.[Na+]` (single isomer, unassigned), the median effective dose (ED50) was 0.3 mg/kg.

Staying with this data set, now noted: Mus musculus, po; read-out: ED50.
Turning to `O=C([O-])C1C/C(=C2\CCN(c3ccccc3)C2=O)c2ccc(Cl)cc2N1.[Na+]` (single isomer, unassigned; (-)), the ED50 was 0.14 mg/kg.

System in a further data set: not listed separately
Put plainly: Toxicity in orally dosed mouse assessed as induction of untoward effects. The class given is organism-based. Conditions: in vivo, po.
With `CC(=O)Nc1ccc(N2CC=C(C3CC(C(=O)O)Nc4cc(Cl)ccc43)C2=O)cc1` (racemic), the Activity result is “Non-Toxic”.

For `O=C([O-])C1C/C(=C2\CCN(c3ccccc3)C2=O)c2ccc(Cl)cc2N1.[Na+]` (single isomer, unassigned; (-)), the Activity result is on record as “Non-Toxic”. The same measure, in the same setting: the result for `CS(=O)(=O)Nc1ccc(N2CC=C(C3CC(C(=O)[O-])Nc4cc(Cl)ccc43)C2=O)cc1.[Na+]` (racemic) reads “Non-Toxic”.

For `CC(=O)Nc1ccc(N2CC/C(=C3\CC(C(=O)O)Nc4cc(Cl)ccc43)C2=O)cc1` (racemic), the Activity entry is “Non-Toxic”. Take `O=C([O-])C1C/C(=C2\CCN(c3cccnc3)C2=O)c2ccc(Cl)cc2N1.[Na+]` (racemic): the Activity result is recorded as “Non-Toxic”.

For the molecule `O=C([O-])C1CC(C2=CCN(c3ccccc3)C2=O)c2ccc(Cl)cc2N1.[Na+]` (racemic), the Activity result is on record as “Non-Toxic”.

As to `O=C([O-])C1CC(C2=CCN(c3ccccc3)C2=O)c2c(Cl)cc(Cl)cc2N1.[Na+]` (racemic), the Activity result was “Non-Toxic”. As to `O=C([O-])C1CC(C2=CCCN(c3ccccc3)C2=O)c2ccc(Cl)cc2N1.[Na+]` (racemic), the Activity result is “Non-Toxic”. The same measure, in the same setting: the result for `O=C([O-])C1C/C(=C2/CCN(c3ccccc3)C2=O)c2c(Cl)cc(Cl)cc2N1.[Na+]` (centres undefined) reads “Non-Toxic”; that for `O=C([O-])C1C/C(=C2/NC(=O)N(c3ccccc3)C2=O)c2ccc(Cl)cc2N1.[Na+]` (racemic), “Non-Toxic”. For `O=C([O-])C1CC(C2=CCN(c3cccnc3)C2=O)c2ccc(Cl)cc2N1.[Na+]` (racemic), the Activity entry is reported as “Non-Toxic”.

Usually ED50 stands for the dose at which the effect has come halfway, by size or by number of responders.
